The text below walks through data of ChEMBL document CHEMBL1155056, “4-(Anilino)pyrrole-2-carboxamides: Novel non-steroidal/non-anilide type androgen antagonists effective upon human prostate tumor LNCaP cells with mutated nuclear androgen receptor” (Bioorg Med Chem, 2008).

Activity calls are given as the source filed them. The rule behind the calls is not given here.

The target of assay [1] is Androgen receptor (Homo sapiens, UniProt P10275, T878A). Kind of assay: Displacement of [3H]testosterone from human recombinant androgen receptor T877A mutant expressed in LNCaP cells.
Assay [2] addresses T1, Androgen receptor (Homo sapiens, UniProt P10275).
T1 sequence (P10275 whole entry): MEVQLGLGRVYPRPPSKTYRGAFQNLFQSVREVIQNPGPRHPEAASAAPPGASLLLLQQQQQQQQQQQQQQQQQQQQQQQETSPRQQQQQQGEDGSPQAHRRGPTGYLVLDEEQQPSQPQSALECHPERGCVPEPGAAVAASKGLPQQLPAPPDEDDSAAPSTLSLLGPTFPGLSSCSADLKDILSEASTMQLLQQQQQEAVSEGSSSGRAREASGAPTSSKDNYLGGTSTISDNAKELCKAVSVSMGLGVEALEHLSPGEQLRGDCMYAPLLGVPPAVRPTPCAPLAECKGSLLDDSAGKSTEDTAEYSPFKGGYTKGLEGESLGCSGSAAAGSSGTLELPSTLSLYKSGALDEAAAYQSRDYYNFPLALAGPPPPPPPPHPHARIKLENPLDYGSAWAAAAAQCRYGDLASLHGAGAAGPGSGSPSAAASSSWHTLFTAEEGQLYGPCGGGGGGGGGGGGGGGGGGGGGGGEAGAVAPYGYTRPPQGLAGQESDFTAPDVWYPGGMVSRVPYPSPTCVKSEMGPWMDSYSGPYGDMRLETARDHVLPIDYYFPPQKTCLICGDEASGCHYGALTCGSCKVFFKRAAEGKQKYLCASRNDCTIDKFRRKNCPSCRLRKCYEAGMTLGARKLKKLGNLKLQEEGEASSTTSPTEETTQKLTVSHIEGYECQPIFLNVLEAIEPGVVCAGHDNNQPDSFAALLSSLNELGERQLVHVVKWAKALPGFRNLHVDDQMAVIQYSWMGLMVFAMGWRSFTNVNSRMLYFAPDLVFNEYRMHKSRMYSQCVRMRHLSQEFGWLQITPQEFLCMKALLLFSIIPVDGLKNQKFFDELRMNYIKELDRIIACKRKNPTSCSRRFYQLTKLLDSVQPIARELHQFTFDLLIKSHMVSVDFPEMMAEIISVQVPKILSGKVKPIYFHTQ

For assay [3], the system named is Androgen receptor (Homo sapiens), P10275 [T878A]. The experiment in a line: Antagonist activity at human recombinant androgen receptor T877A mutant assessed as inhibition of prostate specific antigen production in human LNCaP cells by ELISA. It counts as functional, cell-based.
Assay [4] has as its target T2, Androgen receptor (Homo sapiens) (UniProt P10275).
T2 sequence (whole entry): T1 sequence (P10275 whole entry)
Kind of assay: Antagonist activity at wild type human recombinant androgen receptor assessed as inhibition of testosterone-induced growth of mouse androgen dependent SC3 cells at 1 uM by WST-1 method. The format is functional, cell-based. The conditions noted are these: SC-3.

The subject of another assay is LNCaP. Kind of assay: Antiproliferative activity against human LNCaP cells. It counts as functional, cell-based.
The target of assay [5] is T2, Androgen receptor (Homo sapiens). Kind of assay: Displacement of [3H]testosterone from wild type human androgen receptor at 3 uM.
Assay [6] has the same target. The conditions noted are these: 30 uM.
Description: Displacement of [3H]testosterone from wild type human androgen receptor at 30 uM

Chain of Androgen receptor (Homo sapiens, UniProt P10275, T878A) (P10275 whole entry T878A): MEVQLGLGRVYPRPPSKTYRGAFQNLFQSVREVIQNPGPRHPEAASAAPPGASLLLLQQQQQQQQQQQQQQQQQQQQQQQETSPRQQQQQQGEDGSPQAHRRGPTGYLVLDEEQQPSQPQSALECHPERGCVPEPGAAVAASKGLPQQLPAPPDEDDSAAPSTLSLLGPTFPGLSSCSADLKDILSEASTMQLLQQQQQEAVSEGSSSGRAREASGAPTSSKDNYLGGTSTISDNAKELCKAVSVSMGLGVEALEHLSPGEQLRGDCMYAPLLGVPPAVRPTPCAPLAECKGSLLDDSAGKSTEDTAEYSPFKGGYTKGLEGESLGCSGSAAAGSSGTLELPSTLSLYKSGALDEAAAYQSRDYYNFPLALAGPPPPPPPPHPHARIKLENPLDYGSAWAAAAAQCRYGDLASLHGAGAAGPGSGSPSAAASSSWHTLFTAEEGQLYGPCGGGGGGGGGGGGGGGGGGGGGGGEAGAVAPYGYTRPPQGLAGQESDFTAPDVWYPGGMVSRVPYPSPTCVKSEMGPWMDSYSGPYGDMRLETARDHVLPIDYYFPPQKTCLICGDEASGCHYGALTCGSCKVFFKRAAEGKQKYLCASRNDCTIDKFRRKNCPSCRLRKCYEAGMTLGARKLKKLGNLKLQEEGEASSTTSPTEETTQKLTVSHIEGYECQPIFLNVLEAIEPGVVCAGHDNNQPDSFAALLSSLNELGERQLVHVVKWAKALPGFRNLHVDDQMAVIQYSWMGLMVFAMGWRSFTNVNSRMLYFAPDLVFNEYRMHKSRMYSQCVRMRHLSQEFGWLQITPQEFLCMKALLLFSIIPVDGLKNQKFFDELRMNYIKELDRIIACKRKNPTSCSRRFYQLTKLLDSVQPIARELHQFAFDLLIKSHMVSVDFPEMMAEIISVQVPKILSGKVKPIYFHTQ
Chain of Androgen receptor (Homo sapiens), P10275 [T878A] (P10275 whole entry T878A): as above

Regarding `Cn1cc(N(Cc2ccc(F)cc2)c2ccc([N+](=O)[O-])cc2)cc1C(=O)N1CCCC1`, the inhibitory constant (Ki) at Androgen receptor [1] came out at 140 nM; on Androgen receptor [2], 800 nM.

The molecule `Cc1cc(C)cc(N(c2cc(C(=O)N3CCCC3)n(C)c2)C(C)C)c1` showed a Ki at Androgen receptor [2] of 2700 nM.

On to `Cn1cc(N(Cc2ccccc2)c2ccc([N+](=O)[O-])cc2)cc1C(=O)N1CCCCC1`, for which the results for the Ki on Androgen receptor [1] and at Androgen receptor [2] were 27 nM and 110 nM, respectively.

As for `O=C(c1ccc(N(Cc2ccccc2)c2ccc([N+](=O)[O-])cc2)cc1)N1CCCC1`, the Ki on Androgen receptor [2] is 340 nM.

At Androgen receptor [2], `Cn1cc(Nc2ccc([N+](=O)[O-])cc2)cc1C(=O)N1CCCC1` registered a Ki of 4900 nM.

Consider `Cn1cc(N(Cc2ccccc2)c2ccc([N+](=O)[O-])cc2)cc1CO`, for which the affinity on Androgen receptor [2], expressed as Ki, was 170 nM.

For the molecule `CCOC(=O)c1cc(N(Cc2ccccc2)c2ccc([N+](=O)[O-])cc2)cn1C`, the results for the Ki on Androgen receptor [1] and on Androgen receptor [2] were 7 nM and 180 nM, respectively.

Consider `Cn1cc(N(Cc2ccccc2)c2ccc(C#N)cc2)cc1C(=O)N1CCCC1`, for which the Ki at Androgen receptor [1] was found to be 6 nM; on Androgen receptor [2], 130 nM.

`CC(=O)c1ccc(N(Cc2ccccc2)c2cc(C(=O)N3CCCC3)n(C)c2)cc1`: the Ki was found to be 130 nM on Androgen receptor [1] and 140 nM at Androgen receptor [2]. Besides, the result in assay [3] was inactive.

For `CCN(CC)C(=O)c1cc(N(Cc2ccccc2)c2ccc([N+](=O)[O-])cc2)cn1C`, the Ki on Androgen receptor [1] was 3 nM; on Androgen receptor [2] it was 100 nM.

With `Cn1cc(N(Cc2ccccc2)c2ccccc2[N+](=O)[O-])cc1C(=O)N1CCCC1`, the inhibition in assay [4] stood at 27%. On Androgen receptor [2], this molecule yielded a Ki of 1300 nM.

For the molecule `Cn1cc(N(Cc2ccccc2)c2ccc([N+](=O)[O-])cc2)cc1C(N)=O`, the affinity on Androgen receptor [2], expressed as Ki, was 220 nM.

For `Cn1cc(N(Cc2ccc(CO)cc2)c2ccc([N+](=O)[O-])cc2)cc1C(=O)N1CCCC1`, the inhibition constant Ki was found to be 1400 nM on Androgen receptor [1] and 1800 nM on Androgen receptor [2].

Consider `Cn1cc(N(Cc2ccccc2)c2ccc([N+](=O)[O-])cc2)cc1C(=O)N1CCCC1`, for which the Ki on Androgen receptor [1] stood at 5 nM; at Androgen receptor [2], 110 nM. In addition, in the assay on LNCaP, the result was Active.

`Cc1cc(C)cc(N(CC2CCCCC2)c2cc(C(=O)N3CCCC3)n(C)c2)c1` displayed a Ki at Androgen receptor [2] of 490 nM.

In the case of `CC(C)N(c1ccc([N+](=O)[O-])cc1)c1cc(C(=O)N2CCCC2)n(C)c1`, on Androgen receptor [2], the Ki worked out at 3400 nM.

For the molecule `COC(=O)c1ccc(N(Cc2ccccc2)c2cc(C(=O)N3CCCC3)n(C)c2)cc1`, the Ki at Androgen receptor [1] and on Androgen receptor [2] was 180 nM each time. For the same molecule, the result in assay [3] was inactive.

With `CC(C)(O)C(=O)Nc1ccc([N+](=O)[O-])c(C(F)(F)F)c1`, the result in the assay with LNCaP was inactive.

Take `Cn1cc(N(Cc2ccccc2)c2ccc(C(F)(F)F)cc2)cc1C(=O)N1CCCC1`: the Ki was 36 nM at Androgen receptor [1] and 270 nM at Androgen receptor [2].

In the case of `CN(c1ccc([N+](=O)[O-])cc1)c1cc(C(=O)N2CCCC2)n(C)c1`, on Androgen receptor [2], the affinity, expressed as Ki, was 3600 nM.

For `Cn1cc(N(Cc2ccc(O)cc2)c2ccc([N+](=O)[O-])cc2)cc1C(=O)N1CCCC1`, the Ki was found to be 330 nM at Androgen receptor [1] and 730 nM on Androgen receptor [2].

In the case of `Cc1cc(C)cc(N(Cc2ccc(O)cc2)c2cc(C(=O)N3CCCC3)n(C)c2)c1`, at Androgen receptor [2], the Ki came to 690 nM.

The molecule `CCN(c1ccc([N+](=O)[O-])cc1)c1cc(C(=O)N2CCCC2)n(C)c1` registered a Ki at Androgen receptor [2] of 2000 nM.

As for `Cn1cc(N(CC2CCCCC2)c2ccc([N+](=O)[O-])cc2)cc1C(=O)N1CCCC1`, affinity on Androgen receptor [2] was put at a Ki of 520 nM.

Take `Cc1cc(C)cc(N(Cc2ccc(CO)cc2)c2cc(C(=O)N3CCCC3)n(C)c2)c1`: the Ki on Androgen receptor [2] was 2200 nM.

With `Cn1cc(N(Cc2ccccc2)c2ccc([N+](=O)[O-])cc2)cc1C(=O)O`, the values for the Ki at Androgen receptor [1] and at Androgen receptor [2] were 3 nM and 75 nM, respectively.

In assay [5], `Cc1cc(C)cc(N(Cc2ccccc2)c2cc(C(=O)N3CCCC3)n(C)c2)c1` yielded an inhibition of 20%. The inhibition constant Ki at Androgen receptor [2] stood at 350 nM.

Turning to `Cc1ccc(CN(c2ccc([N+](=O)[O-])cc2)c2cc(C(=O)N3CCCC3)n(C)c2)cc1`, the Ki at Androgen receptor [1] came out at 130 nM; on Androgen receptor [2], 810 nM.

On to `O=C(c1cccc(N(Cc2ccccc2)c2ccc([N+](=O)[O-])cc2)c1)N1CCCC1`, for which, on Androgen receptor [2], the Ki worked out at 370 nM.

Take `Cc1cc(C)cc(Nc2cc(C(=O)N3CCCC3)n(C)c2)c1`: on Androgen receptor [2], the inhibitory constant (Ki) was 3100 nM.

With `CCN(c1cc(C)cc(C)c1)c1cc(C(=O)N2CCCC2)n(C)c1`, the Ki at Androgen receptor [2] came out at 2700 nM.

Take `C[C@](O)(CS(=O)(=O)c1ccc(F)cc1)C(=O)Nc1ccc(C#N)c(C(F)(F)F)c1`: in the assay on LNCaP, the outcome was Active.

As for `Cn1cc(N(Cc2ccccc2)c2ccc([N+](=O)[O-])cc2)cc1C(=O)N1CCc2ccccc21`, the inhibition in assay [5] was found to be 25%. The Ki at Androgen receptor [1] worked out at 9 nM.

Take `Cc1cc(C)cc(N(C)c2cc(C(=O)N3CCCC3)n(C)c2)c1`: the Ki at Androgen receptor [2] is 6100 nM.

Consider `Cn1cc(N(Cc2ccccc2)c2ccc([N+](=O)[O-])c(C(F)(F)F)c2)cc1C(=O)N1CCCC1`, for which the Ki at Androgen receptor [1] was 49 nM. The molecule also had an inhibition in assay [6] of 52%.
